The conditions of data set [1]: cited from earlier work.
The next data set has as its system patients with NDM. The conditions noted are these: cited from earlier work.
Data set [2] concerns DIII S6 and DIV S6 of the sodium channel pore domain. Conditions: cited from earlier work.
Data set [3] has as its target T1, Nav1.4 (Homo sapiens, UniProt P35499). Details: expressed in transfected cells; host or cells: HEK cells. The conditions noted are these: cited from earlier work.
Data set [4] has as its system Nav1.5. Conditions: cited from earlier work.
The next data set deals with Kv1.3. Kind of data set: Whole-cell patch clamp, Kv1.3 in transfected HEK cells. Conditions: 50 μM, room temperature, currents evoked at 0 mV, held at −80 mV.
The next data set relates to Nav1.7. The data set can be described thus: Whole-cell patch clamp, Nav1.7 in transfected HEK cells. The conditions noted are these: room temperature, currents evoked at 0 mV, held at −80 mV. Background: In patch-clamp work, channel activity is measured electrically.
Data set [5] relates to Nav1.5. The data set can be described thus: Whole-cell patch clamp, Nav1.5 in transfected HEK cells. The conditions noted are these: room temperature, currents evoked at 0 mV, held at −80 mV.
Description: (§1) Plasmids containing sodium channels or potassium channels were transfected into HEK cells (gifted from Rong’s lab at Hunan Normal University, Changsha, China [32]) using Lipofectamine 2000. After 24 h, whole-cell patch clamp recordings were made at room temperature. Using a drawn borosilicate glass electrode (resistance 3–5 MΩ) filled with intracellular solution, the current of the transfected cells was assessed using the MultiClamp 700B amplifier (Molecular Devices, Sunnyvale, America) and pCLAMP 10 software. We set the clamping voltage to −80 mV and the stimulation voltage to 0 mV.
(§2) The extracellular solution used to record the sodium ion channels included the following components (in mM): 150 NaCl, 2 KCl, 1.5 CaCl2, 1 MgCl2, and 10 HEPES, and the pH was adjusted to 7.4 with NaOH. To record the potassium ion channel, the extracellular solution contained (in mM) 140 NaCl, 2 KCl, 1.5 CaCl2, 1 MgCl2, and 10 HEPES, and the pH was adjusted to 7.4 using NaOH. The intracellular solution that recorded the sodium ion channel currents contained 10 mM NaCl, 10 mM EGTA, 135 mM CsCl, and 10 mM HEPES, and the pH was adjusted to 7.3 with CsOH. To record the potassium ion channel currents, the intracellular solution contained 10 mM EGTA, 140 mM KCl, 2.5 mM MgCl2, and 10 mM HEPES, and the pH was adjusted to 7.4 using NaOH.
For a further data set, the system named is Kv1.4. The data set can be described thus: Whole-cell patch clamp, Kv1.4 in transfected HEK cells. The conditions noted are these: 50 μM, room temperature, currents evoked at 0 mV, held at −80 mV.
The target of data set [6] is T1, Nav1.4. The data set can be described thus: Whole-cell patch clamp, Nav1.4 in transfected HEK cells.
Description: as §1, §2
The subject of another data set is Kv4.2. Kind of data set: Whole-cell patch clamp, Kv4.2 in transfected HEK cells. Conditions: 50 μM, room temperature, currents evoked at 0 mV, held at −80 mV.
The test system of data set [7] is G-protein-coupled GABAB receptors. The conditions noted are these: cited from earlier work.
Data set [8] concerns N-type (Cav2.2) calcium channels. Conditions: cited from earlier work.

Read-outs that look alike come from different tables or passages of the source. Bridge positions count the residues as written; N and C are the ends.

T1 sequence (P35499 whole entry): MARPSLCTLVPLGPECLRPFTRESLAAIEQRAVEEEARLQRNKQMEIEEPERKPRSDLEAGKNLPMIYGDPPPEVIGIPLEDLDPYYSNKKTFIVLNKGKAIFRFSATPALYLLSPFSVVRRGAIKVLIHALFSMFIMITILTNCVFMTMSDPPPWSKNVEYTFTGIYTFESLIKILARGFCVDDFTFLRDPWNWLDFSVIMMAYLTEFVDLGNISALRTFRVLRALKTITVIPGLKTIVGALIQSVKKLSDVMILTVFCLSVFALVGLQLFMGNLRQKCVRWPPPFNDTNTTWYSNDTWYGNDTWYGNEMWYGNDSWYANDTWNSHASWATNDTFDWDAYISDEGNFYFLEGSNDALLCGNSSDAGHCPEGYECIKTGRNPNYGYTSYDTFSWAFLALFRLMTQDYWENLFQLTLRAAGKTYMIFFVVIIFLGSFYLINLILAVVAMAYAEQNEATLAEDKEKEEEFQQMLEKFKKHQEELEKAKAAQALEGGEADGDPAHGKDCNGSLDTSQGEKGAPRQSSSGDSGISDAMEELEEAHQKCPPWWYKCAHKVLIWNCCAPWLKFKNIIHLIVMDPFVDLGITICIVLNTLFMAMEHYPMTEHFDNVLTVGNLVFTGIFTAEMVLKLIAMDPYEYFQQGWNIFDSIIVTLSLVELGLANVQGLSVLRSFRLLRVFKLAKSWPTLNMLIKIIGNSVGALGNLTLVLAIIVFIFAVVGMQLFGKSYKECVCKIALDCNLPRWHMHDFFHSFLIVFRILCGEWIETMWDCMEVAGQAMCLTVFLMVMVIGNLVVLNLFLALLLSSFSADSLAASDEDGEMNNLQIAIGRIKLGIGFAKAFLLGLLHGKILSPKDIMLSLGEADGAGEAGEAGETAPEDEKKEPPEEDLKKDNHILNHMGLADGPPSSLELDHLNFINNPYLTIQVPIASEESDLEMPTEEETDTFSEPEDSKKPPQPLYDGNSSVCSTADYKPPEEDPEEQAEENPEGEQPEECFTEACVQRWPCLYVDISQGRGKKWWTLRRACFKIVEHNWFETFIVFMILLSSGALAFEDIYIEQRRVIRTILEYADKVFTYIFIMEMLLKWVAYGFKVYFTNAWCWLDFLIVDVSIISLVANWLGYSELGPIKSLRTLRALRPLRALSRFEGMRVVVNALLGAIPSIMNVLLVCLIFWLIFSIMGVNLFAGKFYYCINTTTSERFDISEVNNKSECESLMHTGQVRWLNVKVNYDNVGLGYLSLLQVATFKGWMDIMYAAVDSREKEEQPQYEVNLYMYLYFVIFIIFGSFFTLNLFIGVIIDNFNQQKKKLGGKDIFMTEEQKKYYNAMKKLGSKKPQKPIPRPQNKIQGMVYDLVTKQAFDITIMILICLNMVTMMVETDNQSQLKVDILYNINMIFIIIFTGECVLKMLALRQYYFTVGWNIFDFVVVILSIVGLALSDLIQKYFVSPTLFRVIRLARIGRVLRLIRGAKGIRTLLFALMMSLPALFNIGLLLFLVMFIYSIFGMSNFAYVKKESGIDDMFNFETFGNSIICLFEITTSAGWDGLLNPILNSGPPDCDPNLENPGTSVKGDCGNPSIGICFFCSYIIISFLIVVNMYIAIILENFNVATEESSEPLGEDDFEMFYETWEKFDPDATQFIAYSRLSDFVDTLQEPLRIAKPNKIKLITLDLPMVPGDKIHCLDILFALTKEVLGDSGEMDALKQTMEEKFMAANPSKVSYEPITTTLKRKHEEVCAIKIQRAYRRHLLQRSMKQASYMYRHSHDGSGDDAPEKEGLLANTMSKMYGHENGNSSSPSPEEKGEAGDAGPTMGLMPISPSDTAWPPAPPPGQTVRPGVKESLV
Description for Kv1.3: as §1, §2
Description for Kv1.4: as §1, §2
Description for Kv4.2: as §1, §2
Description for Nav1.7: as §1, §2

On to `Cc1cccc(C)c1NC(=O)C(C)N` (stereo not drawn) [Tocainide, tocainide], for which, in data set [1] (can be fatal), the side effects result is “anemia, agranulocytosis, pulmonary fibrosis, interstitial pneumonia, and pulmonary edema”.

Take `O=C(NCC1CCCCN1)c1cc(OCC(F)(F)F)ccc1OCC(F)(F)F` (stereo not drawn) [flecainide]: the “efficacy in patients with NDM” value in the data set with patients with NDM was “effective in some patients with NDM”.

On to `Cc1cccc(C)c1OCC(C)N` (stereo not drawn) [mexiletine], for which the “effect on muscle stiffness” value with patients with NDM (patients with NDM) was “improving muscle stiffness in patients with NDM”. For the same compound, in data set [2], the “binding site on sodium channel” value was “binds to DIII S6 and DIV S6 of the sodium channel pore domain”. Besides, the side effects entry in data set [1] (sensitivity of different patients varies greatly) was “indigestion”.

With ATX-II, the EC50 in the data set with Nav1.4 [3] is 109 nM; in the data set on Nav1.5 [4], 49 nM.

As usually defined, the IC50 is the concentration at which inhibition is half-maximal. A higher IC50 goes with weaker potency in that assay. Regarding “GEFINGDCELPKVVGPCRAGFRRYYYNSSSKRCEKFIYGGCRGNANNFHTLEECEKVCGVRS (disulfide 8-58, 17-41, 33-54 (inferred)) [Avd3i, U-actitoxin-Avd3i]”, in the data set on Kv1.3, the “effect on Kv1.3” value is “no effect”. In the data set with Nav1.7, the “effect on Nav1.7” value was “did not inhibit”. Further, in the data set with Nav1.5 [5], the “effect on Nav1.5” value is given as “did not inhibit”. In addition, in the data set with Kv1.4, the “effect on Kv1.4” value is reported as “no effect”. Moreover, 25400 nM corresponded to half-maximal inhibition at Nav1.4 [6] (IC50). The “inhibition of Nav1.4 channel at 50.0 μM” value on Nav1.4 [6] (50.0 μM perfusion, transfected HEK cells, room temperature, holding −80 mV, stimulation 0 mV) is “suppressed”. On Nav1.4 [6] (transfected HEK cells, whole-cell patch clamp), the “concentration dependence of Nav1.4 inhibition” value is given as “concentration-dependent manner”. Besides, the “effect on Kv4.2” value in the data set on Kv4.2 is “no effect”.

Turning to Vc1.1, in [7], the “binding to GABAB receptors” value is “binding to G-protein-coupled GABAB receptors”. In data set [8], the “direct binding to Cav2.2” value is recorded as “do not directly bind” and the “inhibition of Cav2.2 channel function” value is recorded as “indirectly inhibit channel function”.

Source of the values: PMC12474041 (Toxins, 2025).
